How the values were obtained:
IGROV1 CR cells = assay: Synergy with cisplatin, SRB cell viability, combination index; type: cell-based
Protocol: (§1) Cell viability was measured by SRB assay. […] Data were represented as mean ± SD (n = 3). (B) Colony formation assay in cells treated as indicated. […] (D) Growth curves of xenograft tumors are shown in (C). Data are represented as means ± SEM, n = 6 mice/group. **p < 0.01. […] (F) IGROV1 CR xenograft tumor growth curve by indicated treatments. Data are represented as means ± SD, n = 6 tumors/group. **p < 0.01. (G) Immunohistochemistry (IHC) staining against pSTAT3 antibodies of tumor samples from four groups of mice (magnification, 200x) (Upper). […]
represented as mean ± SD (n = 3) . ( B) Body we i ght changes of mice in each grou p treated […]
[…] Data are rep res e nted as mea ns ± SD, n= 6 tu mors /g roup . (C) H&E staining of paraffin‐embedded 3‐μm‐th ick tissue sec tions of the tumor, heart, lung , liver and kidney from 4 groups of mice (m agn i f ication , ×200) treated in B.
Cisplatin: sl ightl y […]
means ± SD, n=6 tumors/group . […]
1. Antibodies and re a ge nt s […]
[…] Momordin Ic ( A14773; Adooq Biosc ience) was dissolved in DMSO. Ursolic acid (A10961; Adooq Bioscience) wa s dissolved in DMSO. […]
Cell viability was detected using Sulforhodamine B (SRB) assay as described previously (3).
Absorbance at 51 0 nm was detected using a SpectraMax Re a d e r (Molecular Devices) and an alyzed with SoftMax Analys is Software (Molecular Devices). […]

IGROV1 CR xenograft = IGROV1 CR xenograft tumor growth; type: in vivo; settings: nude mice, i.p., cisplatin 8 mg/kg/2 days + UA 10 mg/kg/2 days or UAMMC9 2 mg/kg/2 days, compared to single agents
Protocol: Importantly, the treatments had minor toxicity (Figures S3B–D).
as §1
ac etoni tri le (solvent A) and 0.02% phosphoric ac id in 10% acetonitrile in wate r (solvent B) at a constant solvent flow rate of 1.0 mL/min.
9. Molecular docking and dynamics simulation
Docking and scoring were performed by using Schrödinger software pa c ka ge. Lig Prep wa s incorp orated to refin e UA (ligand). Ionization state s within pH=7.0±2.0 were selected fo r docking. SENP1 crystal structu re was downloaded from protein datab ank (PDB ID: 2IY0, http :// ww w.rcsb.org /). […] The protein wa s added hyd ro g e n atom s and charges, removed wate rs by Protein Preparation Wi zard module. […] The extended sampling method wa s selected fo r confor mationa l search, and the resi du es in the ra n ge of ligand 5 Å we re further optimized. […]
6 tumors per group were assessed. […]

SMILES | synergy with cisplatin to inhibit IGROV1 CR cells (IGROV1 CR cells) | reduction of tumor growth in combination with cisplatin (IGROV1 CR xenograft)
C[C@H]1[C@H](C)CC[C@]2(C(=O)NCC(=O)N(C)CCO)CC[C@]3(C)C(=CC[C@@H]4[C@@]5(C)CC[C@H](O)C(C)(C)[C@@H]5CC[C@]43C)[C@H]12 [UAMMC9] | great synergy | remarkable synergy
C[C@H]1[C@H](C)CC[C@]2(C(=O)O)CC[C@]3(C)C(=CC[C@@H]4[C@@]5(C)CC[C@H](O)C(C)(C)[C@@H]5CC[C@]43C)[C@H]12 [UA, ursolic acid, reference compound] | great synergy | remarkable synergy

From PMC8710297, “Identification of potent SENP1 inhibitors that inactivate SENP1/JAK2/STAT signaling pathway and overcome platinum drug resistance in ovarian cancer” (Clinical and Translational Medicine, 2021)
